Data taken from patent US20120064008A1, “COMPOSITIONS FOR THE TREATMENT OF METASTATIC CANCER AND METHODS OF USE THEREOF” (priority 2009, published 2012).
Where two headings read alike, the source gives them in different places.

Experiments:
PC-3MLN4 cells = test: Normalized mitotic index (histone H3 phospho-Serine-28), PC-3MLN4; format: cell-based; details: Homo sapiens, at 1 μM; normalized against vehicle-treated cells; read-out: Normalized mitotic index PC-3MLN4
Text: (§1) The mitotic index for each agent was normalized against those obtained from vehicle-treated cells, and compared with the activity of paclitaxel, a known inducer of mitotic arrest.

PC-3M cells = test: Normalized mitotic index (histone H3 phospho-Serine-28), PC-3M; format: cell-based; details: Homo sapiens, at 1 μM, normalized against vehicle-treated cells, read-out: Normalized mitotic index PC-3M
Text: as §1

AT6.1 cells = test: Normalized mitotic index (histone H3 phospho-Serine-28), AT6.1; format: cell-based; details: Rattus norvegicus, at 1 μM; normalized against vehicle-treated cells; read-out: Normalized mitotic index AT6.1
Text: as §1

[1] = system: AT6.1 Dunning rat prostate carcinoma; test: Survival in intravenous AT6.1 Dunning rat prostate carcinoma lung metastasis model; format: in vivo, nu/nu mice; details: for percent increase in life span (ILS %): 100 mg/kg i.p. three times a week, over vehicle-treated mice; for average survival time: FIG. 5 (carrier only 20.4 days)
Protocol: Many anti-tumor drugs are tested only for their ability to prevent primary tumor growth or to prevent the dissemination of metastatic cells. To accomplish this, the drug is usually administered shortly after the primary tumor is established. […] The benzimidazoles described herein were evaluated in an experimental metastases model in the lungs of nude mice following tail-vein injection of Dunning rat AT6.1 prostate carcinoma. […] In order to achieve greater bioavailability, we first solubilized benzimidazoles in DNTC formulation and then diluted with saline prior to injection.
Inbred male nu/nu mice age 6-8 weeks were obtained from Massachusetts General Hospital (Boston, Mass.). The mice were virus antibody free, age and weight matched for experimental use and fed with a balanced rodent diet ad libitum. AT6.1 Dunning rat prostate cells were maintained as described above. 1×10^4 log-phase cells were injected via tail vein in 0.1 mL Hanks solution. Vehicle or drug treatment was started on day 5 post inoculation and given three times a week (Monday, Wednesday and Friday) via intraperitoneal injection in 0.5 mL volume. Benzimidazole drugs were prepared in the combination carrier [DMSO (12.5%), NMP (37.5%), TWEEN®-80 (25%) and CrEL (25%)] and diluted in saline. Vehicle control was prepared by diluting the combination carrier with saline.
During the course of treatment, the mice were monitored for toxicity by measuring body weight. […] Animals were euthanized with CO2 and tissues were collected for further analysis. The animals and experiments used in these studies were approved by the institutional animal care committee according to Children's Hospital Boston ARCH guidelines.
To distinguish differences in survival between these groups, the percent increase in life span (ILS %), defined as the percent increase in the mean time to death of drug-treated animals over the corresponding time to death for vehicle-treated mice, was calculated.

tubulin = test: In vitro tubulin polymerization assay; format: biochemical
Text: Using an in vitro tubulin polymerization assay, it was confirmed that benzimidazoles disrupt microtubule polymerization.

[2] = system: PC3M human prostate cancer cells; test: Cyquant cell viability assay, PC3M; format: cell-based; details: Homo sapiens, PC-3M
Protocol: (§2) PC3M and PC3MLN4 cells were treated with vehicle, fenbendazole in DMSO, and fenbendazole in DMSO/NMP/TWEEN®-80/CrEL in varying doses for 72 hours. Cell viability assays using Cyquant reagent (Invitrogen, C7026) were performed as described in the literature. […] cells were seeded in 96 well plates overnight, before treated with either vehicle or benzimidazole solubilized in DMSO alone or in DMSO (12.5%)/NMP ([…])/TWEEN®-80 (25%)/Cr-EL (25%) for 72 hours. Cells were harvested by removing the media, washing once with phosphate buffered saline (PBS) and freezing at −80° C. for overnight. After thawing to room temperature, Cyquant reagent were prepared and added to the wells and the fluorescence intensity were measured with a spectrometer at 485 nm. Percent control was calculated by dividing the reading from drug-treated cells with the reading from vehicle-treated cells.
(§3) ED50 values were calculated from dose-effect analysis performed with Compusyn using data from the Cyquant cell viability assays.
(§4) ED50 values were calculated from dose-effect analysis performed with Compusyn using data from the Cyquant cell viability assays. All benzimidazoles drugs were solubilized in the combination carrier.

[3] = system: PC3MLN4 human prostate cancer cells; test: Cyquant cell viability assay, PC3MLN4
Protocol: as §2, §3, §4

PC3MLN4 cells = test: Annexin V/7-AAD apoptosis by flow cytometry, PC3MLN4
Protocol: (§5) Annexin V/7-amino-actinomycin D labeling was done according to the manufacturer's instructions (BD Pharmingen, 559763) and samples were analyzed by flow cytometry. Briefly, the cells were treated for 72 hours with either vehicle or 1 μM benzimidazole drugs, solubilized in the combination carrier. Cells were trypsinized and washed with PBS before resuspending in assay binding buffer. Annexin V and 7-amino-actinomycin labeling was performed at room temperature for 15 minutes before analysis by flow cytometry (BD FACScan). Cells positively stained for annexin V in the lower right quadrant and upper right quadrant indicate early and late apoptosis, respectively.
All benzimidazole drugs were solubilized in the combination carrier. After 72 hours, the cells were analyzed by annexin V/7-AAD staining. Cells positively stained for annexin V in the lower right quadrant and upper right quadrant indicate early and late apoptosis, respectively.

PC3M cells = test: Annexin V/7-AAD apoptosis by flow cytometry, PC3M; format: cell-based, human; details: 1 μM, 72 hours, combination carrier
Protocol: All benzimidazole drugs were solubilized in the combination carrier. After 72 hours, the cells were analyzed by annexin V/7-AAD staining.
as §5

[4] = system: AT6.1 Dunning rat prostate carcinoma; test: Tumor burden by blood Gaussia luciferase assay in AT6.1 model; format: in vivo, nu/nu mice; details: 100 mg/kg
Text: Similar to the survival model, treatment was not begun until day 5 when micrometastases were confirmed growing in the lung. For this approach, the AT6.1 cells were engineered to express secreted Gaussia luciferase enzyme. Using measurement of luciferase activity from the peripheral blood as an indicator of overall tumor burden, a significant reduction of tumor burden in the lungs of benzimidazole-treated animals when compared to vehicle-treated mice was observed. After 22 days, the mice were sacrificed and the lungs examined for viable tumor colonies.
Blood Gaussia luciferase assay was performed as described in the literature. Briefly, 10-20 μL peripheral blood was collected from the animals once a week via the retro-orbital vein. Secreted GAR luciferase activity was measured using a luminometer by adding 100 μL of 100 μM coelentrazine (Prolume, Nanolight, #303) to 5 μL blood and 2 μL of 20 mM EDTA. Relative luciferase reading from the blood collected represents the tumor burden in each animal. The reading was performed with blood collected at day 19 post inoculation when all mice were still alive.

[5] = Combination with paclitaxel, Cyquant cell growth inhibition, CompuSyn median-dose effect analysis; format: cell-based; details: Fa 0.50; alone or in combination; read-out: Dose MBZ
Protocol: Cell growth inhibition assays were performed using Cyquant reagent as described above. Drug interactions were quantitated by median-dose effect analysis and combination index values as well as dose reduction index were derived using CompuSyn software (ComboSyn, Inc.), as described previously in the literature. CI values of <1, =1, and >1 indicate synergism, additivity and antagonism between the drugs, respectively.
All benzimidazole drugs were prepared using the combination carrier and diluted with culture medium prior to treatment.

[6] = system: PC3 human prostate cancer cells; test: Cyquant cell viability assay, PC3; format: cell-based; details: 72 hours, read-out: ED50 PC3
Protocol: (§6) The cytotoxic effects of paclitaxel, fenbendazole, and albendazole were compared in paclitaxel-resistant PC3-TR and DU145-TR prostate cancer cells with their paclitaxel-sensitive counterparts, PC3 and DU145 cells. Cells were treated for 72 hours with vehicle, paclitaxel, fenbendazole or albendazole in various doses. Cell viability was measured using Cyquant assay, and percent control was calculated by dividing the fluorescent reading from drug-treated cells with those from vehicle-treated cells, indicating percentage of cell survival.

[7] = system: paclitaxel-resistant PC3-TR prostate cancer cells; test: Cyquant cell viability assay, PC3-TR; format: cell-based, human; details: Homo sapiens; 72 hours; paclitaxel-resistant; read-out: ED50 PC3-TR
Protocol: as §6

[8] = system: DU145 human prostate cancer cells; test: Cyquant cell viability assay, DU145; format: cell-based; details: DU-145, 72 hours, read-out: ED50 DU145
Protocol: as §6

[9] = system: paclitaxel-resistant DU145-TR prostate cancer cells; test: Cyquant cell viability assay, DU145-TR; format: cell-based, human; details: Homo sapiens; 72 hours; paclitaxel-resistant; read-out: ED50 DU145-TR
Protocol: as §6

[10] = system: MES-SA human uterine sarcoma cells; test: Cell viability, MES-SA; format: cell-based; details: read-out: ED50 MES-SA
Text: (§7) Benzimidazoles retain their anti-tumor activity in these paclitaxel-resistant cells, with higher potency when compared to the parental cells (see Table 4). Cells resistant to microtubule-stabilizing drugs such as the taxanes are more susceptible to microtubule-disrupting agents. To confirm this, human uterine sarcoma MES-SA/Dx5 cells, which are cross-resistant to various chemotherapeutic agents, including the microtubule-disrupting agents vincristine and colchicine, were used.

[11] = system: multidrug resistant MES-SA/Dx5 human uterine sarcoma cells; test: Cell viability, MES-SA/Dx5; format: cell-based; details: read-out: ED50 MES-SA/Dx5
Text: as §7

PC3 cells = test: % apoptotic cells, PC3; format: cell-based, human; details: 1 μM
PC3-TR cells = test: % apoptotic cells, PC3-TR; format: cell-based, human; details: 1 μM
DU145 cells = test: % apoptotic cells, DU145; format: cell-based, human; details: 1 μM
DU145-TR cells = test: % apoptotic cells, DU145-TR; format: cell-based, human; details: 1 μM
[12] = combination carrier, Table 2, read-out: ED50 PC3M
[13] = 50 mg/kg i.p. three times a week from day 5

CCCCNC(=O)n1c(NC(=O)OC)nc2ccccc21 [Benomyl, benomyl]
fold induction at 1 µM (PC-3MLN4 cells): 0.99 | fold induction at 1 µM (PC-3M cells): 0.91 | fold induction at 1 µM (AT6.1 cells): 1.08 | percent increase in life span (ILS %) [1]: 7.5% | tubulin disrupting effect (tubulin): strongest tubulin disrupting effect

COC(=O)Nc1nc2ccccc2[nH]1 [Carbendazim, carbendazim]
fold induction at 1 µM (PC-3MLN4 cells): 1 | fold induction at 1 µM (PC-3M cells): 0.91 | fold induction at 1 µM (AT6.1 cells): 1.08

COC(=O)Nc1nc2cc(C(=O)c3ccc(F)cc3)ccc2[nH]1 [Flubendazole, flubendazole]
EC50 [2, 12]: 1430 nM | cytotoxicity in highly metastatic cells relative to PC-3M [3]: greater cytotoxicity | fold induction at 1 µM (PC-3M cells): > 1 | fold induction at 1 µM (AT6.1 cells): > 1 | cytotoxic activity via apoptosis in highly metastatic prostate cancer cells (PC3MLN4 cells): induction of apoptosis

COC(=O)Nc1nc2ccc(C(=O)c3ccccc3)cc2[nH]1 [Mebendazole, mebendazole]
EC50 [2, 12]: 1210 nM | apoptotic cells in PC3MLN4 (PC3MLN4 cells; 1 μM, 72 hours, combination carrier): 17.6% | apoptotic cells in PC3M (PC3M cells): 16.8% | average survival time [1, 13]: 29 days | average survival time ([1]; 100 mg/kg i.p. three times a week from day 5): 34.6 days | percent increase in life span (ILS %) [1]: 48.9% | survival ([1]; 100 mg/kg, FIG. 6 (control 24.25 days)): 36.13 days | reduction in tumor burden ([4]; blood collected at day 19, FIG. 8): most pronounced | tumor burden compared to the control ([4]; until day 22, FIG. 9): significant reduction in tumor burden | EC50 [5]: 17.5 µM | EC50 [6]: 2850 nM | EC50 [7]: 750 nM | EC50 [8]: 5.9 µM | EC50 [9]: 2970 nM | EC50 [10]: 1270 nM | EC50 [11]: 790 nM | % Apoptotic cells (72 hours) PC3 (PC3 cells): 11.9% | % Apoptotic cells (72 hours) PC3-TR (PC3-TR cells): 21.5% | % Apoptotic cells (72 hours) DU145 (DU145 cells): 16.4% | % Apoptotic cells (72 hours) DU145-TR (DU145-TR cells): 36.7%

CCCOc1ccc2nc(NC(=O)OC)[nH]c2c1 [Oxibendazole, oxibendazole]
EC50 ([2]; solubilized in DMSO alone, 72 hours, read-out: ED50 PC3M DMSO): 8820 nM | cytotoxicity in highly metastatic cells relative to PC-3M [3]: greater cytotoxicity | EC50 ([3]; Homo sapiens, 72 h, read-out: ED50 PC3MLN4 DMSO): 4.12 µM | fold induction at 1 µM (PC-3MLN4 cells): 1.8 to 2 | fold induction at 1 µM (PC-3M cells): > 1 | fold induction at 1 µM (AT6.1 cells): > 1 | cytotoxic activity via apoptosis in highly metastatic prostate cancer cells (PC3MLN4 cells): induction of apoptosis | average survival time [1, 13]: 27.4 days

c1ccc2[nH]c(-c3cscn3)nc2c1 [Thiabendazole, thiabendazole]
fold induction at 1 µM (PC-3MLN4 cells): 0.99 | fold induction at 1 µM (PC-3M cells): 0.98 | fold induction at 1 µM (AT6.1 cells): 0.96

COC(=O)NC(=S)Nc1ccccc1NC(=S)NC(=O)OC [Thiophanate methyl, thiophanate-methyl]
fold induction at 1 µM (PC-3MLN4 cells): 0.95 | fold induction at 1 µM (PC-3M cells): 0.95 | fold induction at 1 µM (AT6.1 cells): 0.96
